Data published in patent US20060040871A1, “Bacterial transforming agent” (priority 2003, published 2006).
Read-outs that look alike come from different tables or passages of the source. Values belong to the compound of their own block, whether it stands above or below them.

Columns and labels:
[1] = tested on: MRSA; assay: Antimicrobial plus BTA against recent clinical MRSA isolates (Table 7); type: cell-based, Staphylococcus aureus
Source text: The four clinical isolates were isolated from patients during the first three months of 2003. […] An intermediate MRSA has been included, as methicillin-resistance has been achieved by means other than production of PBP2a.

[2] = tested on: MRSA with intermediate resistance to glycopeptides; assay: MIC of vancomycin or teicoplanin for MRSA with intermediate resistance to glycopeptides grown with GBE or NAGly (Table 4); type: cell-based, Staphylococcus aureus; settings: NAGly 0.001M; for MIC: Staphylococcus aureus, read-out: MIC of teicoplanin
[3] = tested on: VRE; assay: Antimicrobial plus BTA against VRE (Table 7); type: cell-based, enterococci; settings: +BTA 0.1%
[4] = tested on: MRSA; assay: MIC of methicillin for MRSA isolates grown with glycine or GBE (Table 1); type: cell-based, Staphylococcus aureus; settings: 0.0 (Control); for MIC: Staphylococcus aureus
[5] = tested on: S. aureus; assay: MIC of methicillin for already sensitive S. aureus with GBE, with or without 1% human plasma (Table 6); type: cell-based, Staphylococcus aureus; settings: Staphylococcus aureus, no plasma (Control 1)
Source text: As previously mentioned, a common cause of auto-infection is due to S. aureus carried on the anterior nares. […] The transforming agents of the present invention may also be used in combination with a suitable antimicrobial to eliminate nasal carriage of MSSA prior to cardiac surgery or other invasive procedures carrying a high risk of auto-infection.

Structure (SMILES): Cc1onc(-c2ccccc2)c1C(=O)N[C@@H]1C(=O)N2[C@@H]1SC(C)(C)[C@@H]2C(=O)O [Oxacillin, oxacillin]
Oxacillin (antimicrobial plus BTA; quantity not named, MIC implied) ([1]; EMRSA-16, oxacillin alone): 256 µg/mL
Oxacillin (antimicrobial plus BTA; quantity not named, MIC implied) ([1]; EMRSA-17, oxacillin alone): 256 µg/mL
Oxacillin (antimicrobial plus BTA; quantity not named, MIC implied) ([1]; I-MRSA, oxacillin alone): 32 µg/mL

MIC of vancomycin ([2]; L266 (first line), EMRSA-17 (VISA)): 4 µg/mL
MIC of vancomycin ([2]; L266 (second line), EMRSA-17 (VISA)): 2 µg/mL
MIC of teicoplanin ([2]; L266, EMRSA-16 (TISA)): 4 µg/mL
MIC of vancomycin ([2]; NCTC 12493): 0.25 µg/mL
MIC ([2]; MRSA / NCTC 12493, NCTC 12493): 0.15 µg/mL
MIC ([2]; MRSA, L265, EMRSA-16 (TISA)): 4 µg/mL
Structure (SMILES): CC(=O)NCC(=O)O [NAGly, N-acetylglycine]

Oxacillin (antimicrobial plus BTA; quantity not named, MIC implied) ([1]; EMRSA-16, +BTA 0.01%): 6 µg/mL
Cephalexin (antimicrobial plus BTA; quantity not named, MIC implied) ([1]; EMRSA-16, +BTA 0.1%): 6 µg/mL
Oxacillin (antimicrobial plus BTA; quantity not named, MIC implied) ([1]; EMRSA-16, +BTA 0.1%): 4 µg/mL
Vancomycin (antimicrobial plus BTA; quantity not named, MIC implied) ([1]; EMRSA-16, +BTA 0.1%): 0.25 µg/mL
Oxacillin (antimicrobial plus BTA; quantity not named, MIC implied) ([1]; EMRSA-17, +BTA 0.01%): 8 µg/mL
Cephalexin (antimicrobial plus BTA; quantity not named, MIC implied) ([1]; EMRSA-17, +BTA 0.1%): 8 µg/mL
Oxacillin (antimicrobial plus BTA; quantity not named, MIC implied) ([1]; EMRSA-17, +BTA 0.1%): 4 µg/mL
Vancomycin (antimicrobial plus BTA; quantity not named, MIC implied) ([1]; EMRSA-17, +BTA 0.1%): 0.25 µg/mL
Oxacillin (antimicrobial plus BTA; quantity not named, MIC implied) ([1]; I-MRSA, +BTA 0.01%): 4 µg/mL
Cephalexin (antimicrobial plus BTA; quantity not named, MIC implied) ([1]; I-MRSA, +BTA 0.1%): 2 µg/mL
Oxacillin (antimicrobial plus BTA; quantity not named, MIC implied) ([1]; I-MRSA, +BTA 0.1%): 2 µg/mL
Vancomycin (antimicrobial plus BTA; quantity not named, MIC implied) ([1]; I-MRSA, +BTA 0.1%): < 0.25 µg/mL
Vancomycin (antimicrobial plus BTA; quantity not named, MIC implied) [3]: 64 µg/mL
Structure (SMILES): O=C(O)CNC(=O)c1ccccc1 [HA, Hippuric acid (N-Benzoylglycine)]

MIC of methicillin ([4]; CD40 (EMRSA-1)): >256 µg/mL
MIC of methicillin ([4]; DS09 (EMRSA-1)): >256 µg/mL
MIC of methicillin ([4]; E15-97 (EMRSA-15)): >256 µg/mL
MIC of methicillin ([4]; E16-96 (EMRSA-16)): >256 µg/mL
MIC of methicillin ([4]; JF1-32 (EMRSA-1)): >256 µg/mL
MIC of methicillin ([4]; L265): >256 µg/mL
MIC of methicillin ([4]; L267): >256 µg/mL
MIC of methicillin ([4]; L268): >256 µg/mL
MIC of methicillin ([4]; L269): >256 µg/mL
MIC of methicillin ([4]; L270): >256 µg/mL
MIC of methicillin ([4]; L271): >256 µg/mL
MIC of methicillin ([4]; L272): >256 µg/mL
MIC of methicillin ([4]; L273): >256 µg/mL
MIC of methicillin ([4]; L274): >256 µg/mL
MIC of methicillin ([4]; L275): >256 µg/mL
MIC of methicillin ([4]; L276): >256 µg/mL
MIC of methicillin ([4]; L277): >256 µg/mL
MIC of methicillin ([4]; L278): >256 µg/mL
MIC of methicillin ([4]; L279): >256 µg/mL
MIC of methicillin ([4]; L280): >256 µg/mL
MIC of methicillin ([4]; L281): >256 µg/mL
MIC of methicillin ([4]; L282): >256 µg/mL
MIC of methicillin ([4]; L283): >256 µg/mL
MIC of methicillin ([4]; L284): >256 µg/mL
MIC of methicillin ([4]; L285): >256 µg/mL
MIC of methicillin ([4]; L286): >256 µg/mL
MIC of methicillin ([4]; L287): >256 µg/mL
MIC of methicillin ([4]; L288): >256 µg/mL
MIC of methicillin ([4]; L289): >256 µg/mL
MIC of methicillin ([4]; L290): >256 µg/mL
MIC of methicillin ([4]; L291): >256 µg/mL
MIC of methicillin ([4]; L292): >256 µg/mL
MIC of methicillin ([4]; L293): >256 µg/mL
MIC of methicillin ([4]; L294): >256 µg/mL
MIC of methicillin ([4]; MC01 (EMRSA-1)): >256 µg/mL
MIC of methicillin ([4]; PS3-32 (EMRSA-1)): >256 µg/mL
MIC of methicillin ([4]; SN31 (EMRSA-1)): >256 µg/mL
MIC of methicillin ([4]; ST11 (EMRSA-1)): >256 µg/mL
MIC of methicillin ([4]; SW2-32 (EMRSA-1)): >256 µg/mL
MIC ([4]; MRSA / NCTC 12493, NCTC 12493): > 256 µg/mL
MIC ([4]; MRSA, L266): > 256 µg/mL
MIC ([5]; 5518 (EMRSA-1)): > 256 µg/mL
MIC ([5]; LHS77): < 0.25 µg/mL
MIC ([5]; LHS78): 0.25 µg/mL
MIC ([5]; LHS79): 0.5 µg/mL
MIC ([5]; LHS80): 0.25 µg/mL
MIC ([5]; LHS81): < 0.25 µg/mL
MIC ([5]; LHS82): 0.5 µg/mL
MIC ([5]; LHS83): 0.25 µg/mL
MIC ([5]; LHS84): 0.25 µg/mL
MIC ([5]; LHS85): 0.25 µg/mL
MIC ([5]; LHS86): 0.25 µg/mL
MIC ([5]; LHS87): 0.5 µg/mL
MIC ([5]; LHS88): 0.25 µg/mL
MIC ([5]; LHS89): 0.25 µg/mL
MIC ([5]; LHS90): < 0.25 µg/mL
MIC ([5]; LHS91): < 0.25 µg/mL
MIC ([5]; LHS92): 0.5 µg/mL
MIC ([5]; LHS93): 0.25 µg/mL
MIC ([5]; LHS94): 0.25 µg/mL
Structure (SMILES): COc1cccc(OC)c1C(=O)N[C@@H]1C(=O)N2[C@@H]1SC(C)(C)[C@@H]2C(=O)O [methicillin]
